Reference: patent US4021449A (Kyowa Hakko Kogyo Co., Ltd., priority 1973, dated 1977)
≈ marks a conversion by molar mass, not a printed value. Read-outs that look alike come from different tables or passages of the source.

What was measured:
[1] = known; derivatives of U.S. Pat. No. 3,514,452; cited from earlier work
[2] = tested on: Streptococcus faecalis ATCC 10541; test: Antibacterial spectrum, minimum inhibitory concentration (Table 1); format: cell-based
in vivo = conditions: mouse, ip
Experimental: The acute toxicity (determined as LD50) is determined in mice by intraperitoneal injection.

[3] = tested on: Klebsiella penumoniae ATCC 10031; test: Antibacterial spectrum, minimum inhibitory concentration (Table 1); format: cell-based; conditions: ATCC10031, read-out: Minimum Inhibitory Concentration, Klebsiella penumoniae ATCC 10031
[4] = Lipid-solubility: distribution ratio in butanol/water (1:1) (Table 2); format: physicochemical; conditions: in butanol/water (1:1) at 25° C
Text: In determining the lipid-solubility, the distribution ratio of the compound in water and butanol (1:1) is used as the standard.

Sarcoma 180 solid tumor = test: Anti-tumor activity against Sarcoma 180 solid tumor in mice (Table 3); format: in vivo; conditions: male dd-strain mice; one-sixth of LD50 i.p. once daily for 8 days; tumor weight on 10th day after transplantation
Experimental: Small portions of Sarcoma 180 solid tumor are transplanted subcutaneously into male dd-strain mice of about 20 g body weight. To each of 10 mice transplanted with tumor, a solution containing one-sixth of the LD50 value of the test compound is administered intraperitoneally once daily for 8 days starting on the day following the transplantation.
As a control, an equal volume of saline is injected in the same manner as above. On the 10th day after the transplantation, the mice are sacrificed and the weight of the tumor is measured. The ratio of average tumor weight of test animals to average tumor weight of control animals (T/C) is calculated.

[5] = tested on: Staphylococcus aureus ATCC 6538P; test: Antibacterial spectrum, minimum inhibitory concentration (Table 1); format: cell-based; conditions: ATCC6538P, read-out: Minimum Inhibitory Concentration, Staphylococcus aureus ATCC 6538P
tumor = conditions: known; cited from earlier work
[6] = tested on: Gram-nagative and Gram-positive bacteria; conditions: known; cited from earlier work
[7] = Enterococcus faecalis, ATCC10541; read-out: Minimum Inhibitory Concentration, Streptococcus faecalis ATCC 10541

SMILES	toxicity (in words) [1]	MIC [2, 7] [µg/mL]	LD50 (in vivo) [mg/kg]	MIC [3] [µg/mL]	Distribution Ratio (butanol/water) [4]	Sarcoma 180 (T/C), ratio of average tumor weight of test animals to control animals (Sarcoma 180 solid tumor)	MIC [5] [µg/mL]	anti-tumor activity (in words) (tumor)	antibacterial activity (in words) [6]	MIC ([2]; Enterococcus faecalis, ATCC10541, read-out: Minimum Inhibitory Concentration, Streptococcus faecalis ATCC 10541) [µg/mL]
CCCC(=O)N1C2CN3C4=C(C(=O)C(N)=C(C)C4=O)C(COC(N)=O)C3(OC)C21 (stereo not drawn) [1a-butyryl mitomycin C, reference compound]	much less toxicity than mitomycin C	25 (≈ 61.8 µM)	19	3.12 (≈ 7.73 µM)	4.402	0.59	3.12 (≈ 7.73 µM)	–	–	–
CCCCCC[C@@H](O)C/C=C\CCCCCCCC(=O)N1C2CN3C4=C(C(=O)C(N)=C(C)C4=O)C(COC(N)=O)C3(OC)C21 (stereo partly drawn) [1a-ricinoleoyl mitomycin C, la-ricinoleoyl mitomycin C]	–	0.782 (≈ 1.27 µM)	60	0.782 (≈ 1.27 µM)	–	0.28	0.391 (≈ 0.636 µM)	–	–	–
COC12C(COC(N)=O)C3=C(C(=O)C(C)=C(N)C3=O)N1CC1NC12 (single isomer, unassigned) [mitomycin C, reference compound]	very toxic	0.391 (≈ 1.17 µM)	–	< 0.025	–	–	0.049 (≈ 0.147 µM)	remarkably strong anti-tumor activity	very strong antibacterial activity against Gram-nagative and Gram-positive bacteria	–
CCCCCCCCCCCCCC(=O)N1C2CN3C4=C(C(=O)C(N)=C(C)C4=O)C(COC(N)=O)C3(OC)C21 (stereo not drawn) [1a-myristoyl mitomycin C, la-myristoyl mitomycin C]	–	1.56 (≈ 2.87 µM)	45	> 50	–	–	0.391 (≈ 0.718 µM)	–	–	–
CC/C=C\C/C=C\C/C=C\CCCCCCCC(=O)N1[C@H]2[C@@H]1CN1C3=C(C(=O)C(N)=C(C)C3=O)[C@@H](COC(N)=O)[C@@]21OC [1a-linolenoyl mitomycin C, la-linolenoyl mitomycin C]	–	1.56 (≈ 2.63 µM)	95	6.25 (≈ 10.5 µM)	–	–	0.782 (≈ 1.31 µM)	–	–	–
CCCCCCCCCCCCCCCC(=O)N1C2CN3C4=C(C(=O)C(N)=C(C)C4=O)C(COC(N)=O)C3(OC)C21 (stereo not drawn) [1a-palmitoyl mitomycin C, la-palmitoyl mitomycin C]	–	0.782 (≈ 1.37 µM)	75	> 50	–	–	0.782 (≈ 1.37 µM)	–	–	–
CCCCCCCC/C=C\CCCCCCCCCCCC(=O)N1C2CN3C4=C(C(=O)C(N)=C(C)C4=O)C(COC(N)=O)C3(OC)C21 (stereo not drawn) [la-ercoyl mitomycin C]	–	–	125	50 (≈ 76.3 µM)	–	–	> 50	–	–	> 50
CCCCCCCCCCCCCCCCCC(=O)N1C2CN3C4=C(C(=O)C(N)=C(C)C4=O)C(COC(N)=O)C3(OC)C21 (stereo not drawn) [1a-stearoyl mitomycin C, la-stearoyl mitomycin C]	–	> 50	75	> 50	–	–	> 50	–	–	–
CCCCC/C=C\C/C=C\CCCCCCCC(=O)N1C2CN3C4=C(C(=O)C(N)=C(C)C4=O)C(COC(N)=O)C3(OC)C21 (stereo not drawn) [1a-linoleoyl mitomycin C, la-linoleoyl mitomycin C]	–	0.782 (≈ 1.31 µM)	110	12.5 (≈ 20.9 µM)	9.665	0.35	0.782 (≈ 1.31 µM)	–	–	–
CCCCCCCC/C=C\CCCCCCCC(=O)N1C2CN3C4=C(C(=O)C(N)=C(C)C4=O)C(COC(N)=O)C3(OC)C21 (stereo not drawn) [1a-oleoyl mitomycin C, la-oleoyl mitomycin C]	–	1.56 (≈ 2.61 µM)	105	> 50	–	0.31	0.782 (≈ 1.31 µM)	–	–	–
C/C=C/C(=O)N1C2CN3C4=C(C(=O)C(N)=C(C)C4=O)C(COC(N)=O)C3(OC)C21 (stereo not drawn) [1a-crotonoyl mitomycin C, reference compound]	–	12.5 (≈ 31.1 µM)	35.5	0.782 (≈ 1.94 µM)	–	0.53	1.56 (≈ 3.88 µM)	–	–	–
CCCCCC/C=C/CCCCCCCCCC(=O)N1[C@H]2[C@@H]1CN1C3=C(C(=O)C(N)=C(C)C3=O)[C@@H](COC(N)=O)[C@@]21OC [1a-vaccenoyl mitomycin C, la-vaccenoyl mitomycin C]	–	3.12 (≈ 5.22 µM)	105	50 (≈ 83.5 µM)	–	0.34	0.782 (≈ 1.31 µM)	–	–	–
CCCCCCCCCC(=O)N1C2CN3C4=C(C(=O)C(N)=C(C)C4=O)C(COC(N)=O)C3(OC)C21 (stereo not drawn) [1a-decanoyl mitomycin C, la-decanoyl mitomycin C]	–	> 50	67.5	12.5 (≈ 25.6 µM)	7.889	–	0.782 (≈ 1.6 µM)	–	–	–
COC12C(COC(N)=O)C3=C(C(=O)C(C)=C(N)C3=O)N1CC1C2N1C(C)=O (stereo not drawn) [1a-acetyl mitomycin C, reference compound]	much less toxicity than mitomycin C	6.25 (≈ 16.6 µM)	23	0.782 (≈ 2.08 µM)	3.749	0.48	1.56 (≈ 4.15 µM)	–	–	–
CCCCCCCCCCCC(=O)N1C2CN3C4=C(C(=O)C(N)=C(C)C4=O)C(COC(N)=O)C3(OC)C21 (stereo not drawn) [1a-lauroyl mitomycin C, la-lauroyl mitomycin C]	–	> 50	44.5	> 50	–	–	0.391 (≈ 0.757 µM)	–	–	–
